Assay results published in patent publication US8058314B2, “Conductance of improperly folded proteins through the secretory pathway and related methods for treating disease” (Yale University, priority 1999, dated 2011).

Experiments:
[1] = Toxicity test, thapsigargin in drinking water; type: in vivo, mice; settings: drinking water with 1 μM thapsigargin over 3 to 7 days
Method: Genetically uniform lab mice were given either normal drinking water (control) or drinking water which contained thapsigargin (1 μM final concentration). The non-control group of mice were given the thapsigargin-treated water over a 3 to 7 day time period.

CFPAC-1 cells = test: Short circuit current (Ussing chamber) of CFPAC-1 monolayers after cAMP stimulation; type: cell-based, human; settings: 1 uM thapsigargin 1.5 hours, 2 hours recovery, 10 uM forskolin and 100 uM IBMX, n=12
Method: The cell line is homozygous for expression of ΔF508 CFTR and has the ion transport properties of CF-affected epithelia. CFPAC-1 cells show epithelial morphology and polarization with apical microvilli.
CFPAC cells were grown at 370 in 5% CO2 and maintained in Isocove's modified Dulbucco's medium supplemented with 10% fetal calf serum. Both for measurements of short circuit current and for immunofluorescence experiments, these cells were grown on collagen coated permeable supports (Transwell Snapwell filter cups, Corning Costar, Cambridge, Mass.).
CFPAC-1 or T84 cells were grown on collagen coated permeable supports (Transwell Snapwell filter cups, Corning Costar, Cambridge, Mass.). […]
Ag—AgCl wires were embedded in 3M KCl agar bridges were used as voltage and current electrodes on each side of the monolayer contained in an Ussing chamber system (World Precision Instruments, WPI). Voltage was clamped using an EC-825 voltage clamp amplifier (Warner Instruments) with a digital current and voltage readout. The transepithelial potential difference (Vlc) is continuously recorded. At 5-minute intervals the Vtc is clamped to 0 and the short circuit current (Isc) was determined. […]
After cells were mounted in the Ussing chamber electrical parameters were assessed for 20 to 30 minutes (control period). […] During these maneuvers, electrical parameters were continuously monitored.

ΔF508 CFTR = test: Immunofluorescence localization of CFTR in CFBE290− airway epithelial cells; type: cell-based, human
Method: CFPAC and CFBE290^− epithelial cells were grown to confluence on 0.45 micron Transwell filter inserts (Corning Costar, Cambridge, Mass.) under the same conditions described for the short circuit current measurements. Prior to immunofluorescence analysis, filter grown cell monolayers were treated for 90 min with 1 μM thapsigargin at 37° C., present in both the apical and basolateral media compartments. The media was then changed to standard Iscove's growth medium or DMEM without thapsigargin, and cells were incubated for 2 or 4 hours at 37° C. Control cells underwent the same media changes but were not subjected to thapsigargin treatment.
Following the second incubation, the filter grown monolayers were washed once with phosphate buffered saline supplemented with calcium and magnesium (150 mM NaCl, 10 mM NaPi, pH 7.4, 1 mM MgCl2, 0.1 mM CaCl2), after which they were fixed for 10 minutes in −20° C. 100% methanol. Immunofluorescence labeling was performed using the well characterized 169 and 181 antibodies (gift of W. Guggino, Johns Hopkins University) directed against the R domain and the prenucleotide binding fold of the CFTR protein, respectively (Crawford et al., Proc. Nat. Acad. Sci. 88:9262-9266 (1991)) and a monoclonal antibody directed against the α-subunit of the Na,K-ATPase (Gottardi and Caplan, J. Cell Biol. 121:283-293 (1993)).
Incubations with primary and rhodamine-conjugated secondary antibodies were performed as previously described (Gottardi and Caplan, Id.). Labeled cells were examined using a Zeiss LSM 410 laser scanning confocal microscope. All images are the product of 8-fold line averaging. Contrast and brightness settings were chosen so that all pixels were in the linear range. […]
To ensure that the dose of thapsigargin received by the mice was sufficient to rescue ΔF508-CFTR in airway epithelial cells, we examined the effect of nebulized thapsigargin on CFBE290^− cells. […] Filter-grown CFBE290^− cells were exposed to 1 μM nebulized thapsigargin for 3 hours and the distribution of ΔF508-CFTR was evaluated by immunofluorescence.

Question: Which results are given for C/C=C(/C)C(=O)O[C@H]1C(C)=C2[C@H]([C@@H]1OC(=O)CCCCCCC)[C@@](C)(OC(C)=O)C[C@H](OC(=O)CCC)[C@@]1(O)[C@H]2OC(=O)[C@@]1(C)O [thapsigargin]?
Answer: deaths, illnesses or side effects [1]: no deaths, illnesses or side effects; increase in short circuit current after cAMP-stimulation cocktail (CFPAC-1 cells): 14.6±6.6%; distribution of ΔF508-CFTR (ΔF508 CFTR; 1 μM nebulized thapsigargin for 3 hours, air-liquid interface): dramatic redistribution of ΔF508-CFTR to the apical plasmalemma; ΔF508-CFTR surface delivery (ΔF508 CFTR; agent dissolved in media): present to the same extent at the apical surfaces of cells treated with nebulized or dissolved thapsigargin
